What was measured:
[1] = test system: human prostate cancer cells (PC3); test: Assessment of cytotoxicity by SRB assay, PC3 cells; type: cell-based; settings: 0.01 μM to 100 μM for 72 h
Description: (§1) Human prostate cancer cells (PC3) and human osteosarcoma cells (MG-63) were obtained from Nawah Scientific Inc. (Mokatam, Cairo, Egypt) and cultured in DMEM (Dulbecco's modified eagle's medium), Gibco, USA, supplemented with fetal bovine serum (FBS) at a concentration of 10% and 100 U/mL of penicillin and streptomycin (PS). The Cells were incubated at 37° C. in a humidified environment that contained 5% CO2. Cells were seeded in 96-well plates as aliquots of 100 μL cell suspension and incubated in a complete media for 24 h. Afterward, cells were treated with 3-(4-methoxyphenyl)-5-{[5-methyl-2-(propan-2-yl)phenoxy]methyl}-1,2,4-oxadiazole at diverse concentrations ranging from 0.01 μM to 100 μM for 72 h. Then, cells were fixed at 4° C. for one hour with 150 μL of 10% trichloroacetic acid (TCA). After washing the cells five times with distilled water, 70 μL of sulforhodamine (SRB) solution (0.4% w/v) was added and incubated for 10 min at room temperature in a dark place. […] Then, 150 μL of Tris pH 10.5 (10 mM) was added, and the absorbance was measured at 540 nm using a BMG LABTECH®-FLUOstar Omega microplate reader (Ortenberg, Germany). Half maximal inhibitory concentrations (IC50) values were calculated for each experiment using GraphPad Prism 6 software. […] The inhibition was calculated using the following equation: Inhibition %=100−Average Viability

[2] = test system: human osteosarcoma cells (MG-63); test: Assessment of cytotoxicity by SRB assay, MG-63 cells; type: cell-based; settings: 0.01 μM to 100 μM for 72 h
Description: as §1

In the case of COc1ccc(-c2noc(COc3cc(C)ccc3C(C)C)n2)cc1 [3-(4-methoxyphenyl)-5-{[5-methyl-2-(propan-2-yl)phenoxy]methyl}-1,2,4-oxadiazole], the “antiproliferative activity against prostate cancer cells (PC3)” value [1] is reported as “excellent antiproliferative activities” and the “antiproliferative activity against osteosarcoma (MG-63) cells” value [2] is reported as “excellent antiproliferative activities”.

Source: patent US11981646B1, “3-(4-methoxyphenyl)-5-{[5-methyl-2-(propan-2-yl)phenoxy]methyl}-1,2,4-oxadiazole as an antitumor and antimicrobial compound” (King Faisal University, priority 2023, dated 2024)
